Laboratory results published in US20210196779A1, “Compositions and Methods for Treating Steroid Hormone-Related Diseases or Disorders” (YALE UNIVERSITY, priority 2018, published 2021).

Columns and labels:
Type in all cases: cell-based
LNCaP cells = test: Cell growth assay, LNCaP prostate cancer cells
Method: (§1) 22RV1 or LNCaP prostate cancer cells were grown in corning T75 cell culture flasks in RPMI1640 medium supplemented with 5% FBS, 50 μg/ml Kanamycin in a 37° C., 5% CO2 incubator.
(§2) 20,000 cells in 1 ml of medium (phenol red free RPMI1640, 5% charcoal-dialysis FBS, 50 μg/ml Kanamyacin) were seeded per well of a 24-well plate and incubated in a 37° C. incubator with 5% CO2 overnight. Different concentrations of herbal extract were added to each well in order to have final concentrations from 50 μg/ml to 500 μg/ml. […] For glucocorticoid receptor overexpressed LNCaP cells, dexamethasone (50 nM) was used to stimulate glucocorticoid receptor activity. For all breast cancer cells, E2 (10 nM) was used to stimulate ER activity. Control medium without any steroid hormone was used as a control setting. After 4 days of incubation, cells were fixed and stained for 2 h with 0.5% methylene blue in 50% ethanol, followed by washing with tap water to remove unbound dye. Plates were air dried and then cells were dissolved in 1% sarkosyl (sodium lauroyl sarcosinate) by shaking at room temperature for 3 h. […] All experiments were performed in triplicate wells and were repeated at least three times.

GR (stimulated with DEX) = target: T1, GR (stimulated with DEX) (Homo sapiens, UniProt P04150); test: GR driven luciferase activity (DEX) in LNCaP-GR cells; conditions: LNCaP-GR luciferase reporter cells
T1 construct: expressed in transfected cells; host or cells: LNCaP (LNCaP-GR)
Method: Both LNCaP and GR overexpressing LNCaP cells were carrying luciferase reporters with AR response elements.
(§3) Reporter cells were treated with herbal extracts at 30, 100, 300, and 1000 μg/ml for 24 h in a 37° C.-CO2 incubator. DHT (25 nM) was used to stimulate androgen receptor activity. Dexamethasone (50 nM) was used to stimulate glucocorticoid receptor activity Cells were lysed using luciferase lysis buffer after which luciferase buffer with luciferin was added to generate luminescence. Luminescence was recorded using a luminescence microplate reader.

22Rv1 cells = test: Cell growth assay, 22Rv1 prostate cancer cells; conditions: in the presence or absence of DHT and DEX
Method: as §1, §2

[1] = system: LNCaP-GR (GR overexpressing) cells; test: Cell growth assay, GR overexpressing LNCaP cells; conditions: DEX stimulated
Method: as §2

androgen receptor (AR) = test: PSA-luciferase reporter assay, DHT induced, 22RV1 cells; conditions: equivalent doses, 22RV1 cells in the presence of DHT
Method: 22RV1 or LNCaP prostate cancer cells were used in the screening study. 22RV1 or LNCaP cell lines were stably transfected with PSA promoter-PGL4.2 luciferase reporter. DHT (25 nM) was used to stimulate androgen receptor activity for 24 h.
as §3

T1 sequence (P04150 whole entry): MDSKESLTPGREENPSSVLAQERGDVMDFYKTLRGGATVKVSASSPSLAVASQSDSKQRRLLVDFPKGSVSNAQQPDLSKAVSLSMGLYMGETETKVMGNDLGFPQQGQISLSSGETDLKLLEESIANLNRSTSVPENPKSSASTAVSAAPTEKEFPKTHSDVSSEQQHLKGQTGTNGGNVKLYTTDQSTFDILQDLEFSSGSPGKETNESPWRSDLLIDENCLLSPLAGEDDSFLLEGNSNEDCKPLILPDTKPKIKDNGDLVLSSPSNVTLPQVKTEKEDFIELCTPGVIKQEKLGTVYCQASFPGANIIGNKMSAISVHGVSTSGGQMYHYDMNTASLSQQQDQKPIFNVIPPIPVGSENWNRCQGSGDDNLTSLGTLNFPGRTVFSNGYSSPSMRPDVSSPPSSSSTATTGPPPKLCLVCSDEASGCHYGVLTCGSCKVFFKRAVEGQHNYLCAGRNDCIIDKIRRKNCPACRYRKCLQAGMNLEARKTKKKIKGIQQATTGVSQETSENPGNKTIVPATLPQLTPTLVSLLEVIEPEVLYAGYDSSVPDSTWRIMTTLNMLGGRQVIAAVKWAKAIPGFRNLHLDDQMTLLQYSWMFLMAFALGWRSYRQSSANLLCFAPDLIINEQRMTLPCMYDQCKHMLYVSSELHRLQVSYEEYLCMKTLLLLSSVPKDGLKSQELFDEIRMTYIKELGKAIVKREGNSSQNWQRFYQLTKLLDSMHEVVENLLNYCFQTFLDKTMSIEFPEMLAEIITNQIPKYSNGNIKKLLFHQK

SMILES	susceptibility of LNCaP cell growth to treatment (in words) (LNCaP cells; in the absence of DHT)	sensitivity of LNCaP cell growth to treatment (in words) (LNCaP cells; in the presence of DHT)	inhibition of DEX induced transcriptional response (GR (stimulated with DEX))	growth inhibitory effect on 22RV1 cells (in words) (22Rv1 cells)	resistance of LNCaP-GR cell growth (in words) [1]	inhibitory effect on AR mediated transcriptional response (androgen receptor (AR))
CNC(=O)c1ccc(N2C(=S)N(c3ccc(C#N)c(C(F)(F)F)c3)C(=O)C2(C)C)cc1F [Enzalutamide, reference compound]	not be susceptible	more sensitive	but not DEX induced transcriptional response	resistant	resistant	–
Cc1c(O)cc2c(c1O)C(=O)c1ccc(O)cc1C2=O [TMT, 1,3,6-Trihydroxy-2-methyl-9,10-anthracenedione]	–	–	–	–	–	very weak activity
